Measured values published in patent US11939348B2, “Compositions comprising a phosphorus derivative of nicotinamide riboside and methods for modulation of nicotinamide adenine dinucleotide” (Metro International Biotech, LLC, priority 2019, dated 2024).

Test system: AML12 cells
Assay: NAD(H) normalized to total protein in treated AML12 cells compared to untreated cells
Format: cell-based
Conditions: compound at 2 mM, 1 mM and 500 micromolar, untreated cells normalized to 1.0, FIG. 1
Description: Compound A is Formula I, n=2. Compound B is Formula I, n=1.

| Structure (SMILES) | NAD(H) normalized to total protein in treated AML12 cells compared to untreated cells |
| --- | --- |
| NC(=O)c1ccc[n+]([C@@H]2O[C@H](COP(=O)([O-])OP(=O)([O-])OCC3O[C@@H]([n+]4cccc(C(N)=O)c4)[C@H](O)[C@@H]3O)[C@@H](O)[C@H]2O)c1 (some centres unmarked) [Compound A] | possess NAD(H) boosting activity |
| NC(=O)c1ccc[n+]([C@@H]2O[C@H](COP(=O)(O)OC[C@H]3O[C@@H]([n+]4cccc(C(N)=O)c4)[C@H](O)[C@@H]3O)[C@@H](O)[C@H]2O)c1 [Compound B, bis(((2R,3S,4R,5R)-5-(3-carbamoylpyridin-1-ium-1-yl)-3,4-dihydroxytetrahydrofuran-2-yl)methyl) phosphate acetate] | possess NAD(H) boosting activity |
